Source: US20170251655A2, “COMPOSITIONS AND METHODS FOR CAPTURING, KILLING OR REPELLING BED BUGS” (OLFACTOR LABORATORIES, INC., priority 2014, published 2017)
Structures can show the parent of a compound that is named as a salt.

Legend:
[1] = tested on: bed bug (Cimex lectularius); experiment: Bed bug repellency assay (filter paper harborage, petri dish); type: in vivo; details: for % Repellency / Repellency Category: individual compounds; for % Repellency: 10 microliters compound + 90 microliters isopropyl alcohol on filter paper tent, 10 bed bugs, 5 minutes, vs control; for Repellency Category: category from % repellency; for Ind % Rep (percent repellency of the individual compound): values obtained in Example 1 for the individual compound of a blend
Method: Compounds and blends of the present invention were assayed for their ability to modify bed bug (Cimex lectularius) behavior using a bed bug repellency assay. This assay takes advantage of the bed bug's natural instinct to seek harborage. Two petri dishes were obtained and the inner areas of each were sanded down (leaving the perimeter smooth.) Talc was applied on the perimeter and on the inside walls of the petri dishes with a small paint brush to prevent bed bugs from escaping. A cut off top portion of a plastic cup was placed upside down in the center of one petri dish to create a holding arena for the bed bugs. A large plastic secondary container was gathered and a paper towel was laid down inside the bottom. The petri dish was then placed inside and ten bed bugs were placed inside the cut off portion of the cup.
Next, two pieces of filter paper were cut down the middle to yield 4 equally sized halves. Three pieces were placed inside a glass dish […] and the remaining piece was placed in a separate dish. All four pieces were folded down the middle to create a “tent” or “harborage” when laid such that the folded crease faced up. 100 microliters of isopropyl alcohol was pipetted into three pieces of filter paper (all housed in the first glass dish.) In a separate 4 ml vial, 90 microliters of isopropyl alcohol was combined and vortexed with 10 microliters of the compound or compound combination being tested. 100 microliters of this solution [comprising a total of […] of compound(s)] was pipetted onto the filter paper in the separate dish. All filter papers were then allowed to dry. Once dry, experiments were conducted first with two filter paper halves comprising only the isopropyl alcohol (control experiment) and then with the remaining filter paper halves [one with only isopropyl alcohol and one comprising the test compound(s).] Filter paper halves were placed on opposing sides of experimental petri dishes and bed bugs were allowed to move freely within the dishes by removal of the plastic cup top. Movement was allowed to continue for 5 minutes before the number bed bugs beneath each filter paper tent was recorded.

[2] = tested on: bed bug (Cimex lectularius); experiment: Bed bug threshold assay (mouse bait, treated filter paper on acrylic rod bridges); type: in vivo; details: 90 μl isopropyl alcohol + 10 μl testing compound on filter paper; bed bugs crossing treated vs control; mouse as bait; 10 minutes
Method: Compounds and blends of the present invention were assayed for their ability to modify bed bug (Cimex lectularius) behavior using a bed bug threshold assay. Three interceptors were laid side by side and acrylic rods were stuck on to the sides with putty so that they went from interceptor to interceptor forming bridges. Paper towels sections of 6 inches by 2 inches were placed so that they hung off of the ends of the acrylic rods to form harborage for bed bugs. Next, 125 mm pieces of Whatman Filter paper treated either with the compound of interest (90 μl isopropyl alcohol+10 μl testing compound) or with control solution of 100 μl isopropyl alcohol were stuck to the top of the acrylic rods with the compound impregnated filter on one rod and control impregnated filter on the other. In the middle interceptor a mouse was placed as bait for the bed bugs. In either outside interceptors 10 bed bugs each were placed in holding dishes, allowed to equilibrate for 10 minutes then released on the harborage. Video footage at 1 second time intervals was obtained for 10 minutes then analyzed for bed bug movements. Repellency of any given compound or blend was calculated by counting how many bed bugs traversed the acrylic rods across either the treated or the control Whatman filter paper. Percent repellency was determined by comparing the number of bed bugs which crossed the treated Whatman filter paper to the number of bed bugs which crossed the control Whatman filter paper.

[3] = tested on: bed bugs; experiment: Bed bug luring assay (baited cup, overnight); type: in vivo; details: for Attractant Category: category from attractant activity value; for Att Act (attractant activity value): percentage of 10 bed bugs in baited cup, cottonball with 100 microliters compound or combination solution, overnight, dark
Method: Assays were conducted to measure the ability of compounds and compound combinations to attract bed bugs. A testing arena habitat comprising a small plastic container was placed inside of a larger, secondary container. The top half inch was removed from two bathroom sized plastic cups and each cup was placed on opposite sides of the testing arena habitat, one inch away from the wall. Each outer part of the cup was textured using sandpaper, as bed bugs cannot climb smooth surfaces. A paper towel was used to line the floor of the testing arena habitat. The top, removed portion of one of the cups was placed mouth side down in the center of the arena. In one of the cups, a cottonball was placed and treated with 100 microliters of compound or compound combination solution [comprising a total of […] of compound(s).] Ten bed bugs were placed within the center cut off cup top and the testing arena habitat was covered and placed within a dark, climate controlled room overnight.
The next day, the number of bed bugs that crawled into the baited cup were recorded and the attractant activity value was calculated. As used herein, the attractant activity value represents the percentage of bugs that crawled into the baited cup as compared to the total number of bed bugs. In the Table, “Att Act” refers to attract activity value.

[4] = tested on: C. lectularius; details: population of C. lectularius isolated in Arkansas; cited from earlier work
[5] = tested on: bed bugs; details: study performed in Africa; cited from earlier work
[6] = tested on: bed bug (Cimex lectularius); experiment: Bed bug repellency assay (filter paper harborage, petri dish); type: in vivo; details: statement in the description, test not named

Row | Compound | % Repellency [1] [%] | Repellency Category [1] | % Repellency [2] [%] | Attractant Category [3] | Att Act (attractant activity value) [3] [%] | further results
1 | CC(=O)/C=C/C=C(C)C [BBC014, methyl heptadienone] | 87 | Very Strong (compounds with a percent repellency value of 80-100% were categorized as very strong repellents) | 64 |  |  | 
2 | COC(Cc1ccccc1)OC [BBC012, phenylacetaldehyde dimethyl acetate] | 100 | Very Strong (compounds with a percent repellency value of 80-100% were categorized as very strong repellents) |  |  |  | 
3 | CCC(=O)OCCC(C)C [BBC051, isoamyl propionate] |  |  |  | Mild (Compounds or blends with an attractant activity value of 10-20% were categorized as mild attractants) | 10 | 
4 | Clc1ccc(C(c2ccc(Cl)cc2)C(Cl)(Cl)Cl)cc1 [DDT, dichlorodiphenyltrichloroethane] |  |  |  |  |  | LD50 [4]: 100,000 ppm; bed bug activity level after treatment [5]: higher activity level
5 | CCCC1CCC(=O)O1 (stereo not drawn) [BBC021, gamma-heptalactone] | 71 | Strong (Compounds with a percent repellency value of 60-80% were categorized as strong repellents) | 91 |  |  | Ind % Rep (percent repellency of the individual compound) [1]: 71%
6 | C=CCc1ccc(O)c(OC)c1 [BBC002, eugenol] |  |  |  |  |  | bed bug repellency, in words [6]: repel bed bugs
7 | COc1cnccn1 [BBC047, 2-methoxypyrazine] |  |  |  | Moderate (Compounds or blends with an attractant activity value of 20-40% were categorized as moderate attractants) | 30 | 
8 | CCCC(C)=O [BBC065, 2-pentanone] |  |  |  | Moderate (Compounds or blends with an attractant activity value of 20-40% were categorized as moderate attractants) | 30 | 
9 | COC(/C=C/c1ccccc1)OC [BBC013, cinnamic aldehyde dimethyl acetal] | 90 | Very Strong (compounds with a percent repellency value of 80-100% were categorized as very strong repellents) |  |  |  | 
10 | O=C1CCCC1 [BBC069, cyclopentanone] |  |  |  | Strong (Compounds or blends with an attractant activity value of 40-60% were categorized as strong attractants) | 50 | 
11 | 2-methoxy-3(5or6) isopropylpyrazine [BBC006] | 100 | Very Strong (compounds with a percent repellency value of 80-100% were categorized as very strong repellents) | 100 |  |  | 
12 | CC1=C2CCC(C)CC2OC1=O (stereo not drawn) [BBC054, menthalactone] |  |  | 95 |  |  | 
13 | CCCOC=O [BBC070, propyl formate] |  |  |  | Moderate (Compounds or blends with an attractant activity value of 20-40% were categorized as moderate attractants) | 30 | 
14 | methoxy cinnamic aldehyde [BBC046] | 23 | Mild (Compounds with a percent repellency value of 20-40% were categorized as mild repellents) | 92 |  |  | 
15 | CSC(C)=O [BBC060, methanethiol acetate] |  |  |  | Moderate (Compounds or blends with an attractant activity value of 20-40% were categorized as moderate attractants) | 20 | 
16 | N#C/C=C/c1ccccc1 [BBC029, cinnamyl nitrile] | 56 | Moderate (Compounds with a percent repellency value of 40-60% were categorized as moderate repellents) | 92 |  |  | Ind % Rep (percent repellency of the individual compound) [1]: 56%
17 | COc1nccnc1C [BBC067, 2-methoxy-3-methylpyrazine] |  |  |  | Mild (Compounds or blends with an attractant activity value of 10-20% were categorized as mild attractants) | 10 | 
18 | CCCC(=O)CCC [BBC057, heptanone-4] |  |  | 38 |  |  | 
19 | ultrazur [BBC016] | 84 | Very Strong (compounds with a percent repellency value of 80-100% were categorized as very strong repellents) | 64 |  |  | 
20 | O=CCCc1ccccc1 [BBC005, phenyl propyl aldehyde] | 100 | Very Strong (compounds with a percent repellency value of 80-100% were categorized as very strong repellents) | 74 |  |  | 
21 | CCCCCCOC=O [BBC035, hexyl formate] |  |  |  | Moderate (Compounds or blends with an attractant activity value of 20-40% were categorized as moderate attractants) | 30 | 
22 | C/C=C/C(=O)OC [BBC039, methyl crotonate] |  |  |  | Moderate (Compounds or blends with an attractant activity value of 20-40% were categorized as moderate attractants) | 20 | 
23 | COC(=O)CCC(C)=O [BBC049, methyl levulinate] |  |  |  | Mild (Compounds or blends with an attractant activity value of 10-20% were categorized as mild attractants) | 10 | 
24 | C/C=C(\C)C=O [BBC062, trans-2-methyl-2-butenal] |  |  |  |  |  | Ind % Rep (percent repellency of the individual compound) [1]: 0%
25 | COc1ccccc1O [BBC011, guaiacol] |  |  |  |  |  | bed bug repellency, in words [6]: repel bed bugs
